Measurements from PMC7076710, “Synthesis, Identification, and Structure–Activity Relationship Analysis of GATA4 and NKX2-5 Protein–Protein Interaction Modulators” (Journal of Medicinal Chemistry, 2019).
Where two headings read alike, the source gives them in different places.

Columns and labels:
Format in all cases: cell-based
[1] = target: T1, GATA4 transcriptional activity (Mus musculus, UniProt Q08369); test: GATA4 luciferase reporter assay (tandem GATA-site reporter, COS-1 cells); settings: for activity at 3 µM / activity at 10 µM: COS-1
T1 construct: expressed in transfected cells; host or cells: COS-1
Description: (§1) To screen compounds for the GATA4–NKX2-5 interaction, we have developed a luciferase reporter assay based on their property to activate gene transcription synergistically through the NKX2-5 binding site on DNA.[28] In this assay, we transfected mammalian COS-1 cells with protein expression vectors for GATA4 and NKX2-5 proteins together with artificial luciferase reporter vector containing three high affinity binding sites for NKX2-5 (NKE). […] All 257 compounds were tested in two concentrations, 3 and 10 μM. Compounds either inhibited, enhanced, or had no effect on the GATA4–NKX2-5 transcriptional synergy. To investigate the selectivity of the active compounds, we tested their effects on NKX2-5 transcriptional activity by using the same luciferase reporter vector as in transcriptional synergy assay with three NKE sites (Figure 3B). Furthermore, we used GATA luciferase reporter assay to examine if compounds have an effect on GATA4 transcriptional activity. In this assay, we cotransfected the cells with a GATA4 protein expression vector and a reporter vector with tandem GATA4 binding sites (Figure 3C). Previously we have reported that compound 1 inhibited the GATA4–NKX2-5 transcriptional synergy at micromolar concentrations (IC50 = 3 μM).[29]
(§2) The plasmids expressing mouse GATA4 protein, pMT2-GATA4, and empty pMT2 were gifts from D. B. Wilson (Department of Pediatrics, St. Louis Children’s Hospital, St. Louis, MO).[44] The plasmids expressing mouse NKX2-5 protein, pMT2-NKX2-5, have been described earlier.[28] The luciferase reporter plasmid used in GATA4–NKX2-5 transcriptional synergy assay and NKX transcriptional assay, pGL3-3xHA, contains three high affinity binding sites for NKX2-5.[28] The luciferase reporter plasmid used in GATA transcriptional assay, NP-112, contains tandem GATA-sites and minimal promoter of rat brain natriuretic peptide (BNP) gene.[45] The pGL3-BNP luciferase reporter containing −534/+4 bp rat BNP proximal promoter described previously was used in hypertrophy assay.[46]
(§3) The primary screening assay of compounds’ effect on GATA4–NKX2-5 transcriptional synergy and COS-1 cell culturing has been described earlier.[33] […] (Kinnunen et al., unpublished observation). Briefly, COS-1 cells were seeded at 14 000 cells/well in Isoplate-96 microplates (PerkinElmer, Turku, Finland) and grown overnight. The cells were transfected with the luciferase reporter plasmid pGL3-3xHA 100 ng/well and equal amounts of expression plasmids pMT2-GATA4 and pMT2-NKX2-5 total 50 ng/well. To verify the synergistic effect, the cells were transfected with pMT2-GATA4 or pMT2-NKX2-5 25 ng/well, and the total DNA concentration was adjusted to 50 ng/well with empty pMT2 plasmid. In NKX2-5 and GATA4 luciferase reporter assays, the cells were transfected with reporter plasmid pGL3-3xHA or NP-112 (100 ng/well) and expression plasmid pMT2-NKX2-5 or pMT2-GATA4 (25 ng/well). The ratio of DNA/transfection reagent (Fugene 6, Promega) was 1:3 in all assays. The transfections were performed in serum and antibiotics free media for 6 h. The cells were treated with compounds or vehicle (0.1% DMSO) for 24 h, and the luminescence was measured using neolite Reporter Gene Assay System (PerkinElmer, Turku, Finland) and Victor2 plate reader (PerkinElmer, Turku, Finland).
(§4) Raw luciferase data were analyzed in Excel, and clear outliers were removed from triplicates by using the Grubb’s test. Data analysis was performed using R.[49] The luciferase data were first normalized on the basis of the combined mean value of controls. For data visualization and creation of figures, the following R packages were used: ggplot2, cowplot, RColorBrewer, and pheatmap. The heatmaps of the toxicity data were produced with GraphPad Prism 7.00 (GraphPad Software, La Jolla, CA). Statistical significance of luciferase reporter assay data was evaluated by randomized block analysis of variance followed by Dunnett’s post hoc test. […]

[2] = target: T2, NKX2-5 transcriptional activity (Mus musculus, UniProt P42582); test: NKX2-5 luciferase reporter assay (3xNKE reporter, COS-1 cells); settings: COS-1; for activity at 3 µM: read-out: NKX.3µM; for activity at 10 µM: read-out: NKX.10µM
T2 construct: expressed in transfected cells; host or cells: COS-1
Description: as §1, §2, §3, §4

[3] = test system: COS-1 cells; test: MTT assay (cell viability); settings: cell viability
Description: (§5) To investigate the toxicity as a potential cause of decreased or increased activity in luciferase reporter gene assays, we tested a set of 40 active compounds in the COS-1 cell line used for the luciferase assays. Concentration-dependent toxic effects were investigated using the lactate dehydrogenase (LDH) assay to detect necrosis and the 3-(4,5-dimethylthiazol-2-yl)-2,5-diphenyltetrazolium bromide (MTT) assay as a measure of cell viability. […] For the data analysis, compounds were classified as toxic (Figures 5 and 7) if they induced a >10% decrease in cell viability in the MTT assay at the concentration of 10 μM. The most toxic compounds (35a, 35d, 54, 58, and 63–65) in the MTT assay all contained a phenyl substituent in the southern part ring, while the ortho-nitrophenyl-derivative 39g and the phenyl-substituted thiophene 47t were nontoxic. Higher flexibility in the central parts of the ethers (35a, 35d) and N-acylated amines (58, 64) might contribute to their toxicity, because less rigid compounds are more likely to have affinity to various biological targets. Such interactions can cause toxicity. To confirm and validate the results from MTT assays, we tested three nontoxic (2, 47s, and 72) and three toxic (1, 35a, and 58) compounds in a cell viability assay measuring intracellular ATP content.
(§6) Figure 5 Effects of selected compounds on COS-1 cell viability. (A) Compound-induced necrosis was quantified with the LDH assay after a 24-h compound exposure. The data are presented as cytotoxicity percentage (% of maximal LDH release). (B) Cell viability was analyzed with the MTT assay after a 24-h compound exposure. (A,B) The data are means from 2–3 independent experiments with 3 replicate wells in each and are presented as % of control (vehicle-treated cells). The compounds have been grouped on the basis of the structure of the central part: a, amide; b, ether; c, N-acylated amine; d, amine; and e, imine. (C) The effects of selected compounds on cell viability as determined by ATP content after a 24-h compound exposure. The data are mean + SEM from three independent experiments and are presented as % of vehicle-treated cells.
(§7) For toxicity screening, COS-1 cells were cultured in DMEM (Sigma-Aldrich, Steinheim, Germany) supplemented with 10% fetal bovine serum, 100 U/mL penicillin, and 100 μg/mL streptomycin (all from Gibco, Thermo Scientific) at 37 °C with 5% CO2. The cells were plated on 96-well plates at 10 000 cells/well and exposed to test compounds at a concentration range of 1–30 μM on the following day. After a 24-h compound treatment, lactate dehydrogenase (LDH) and 3-(4,5-dimethylthiazol-2-yl)-2,5-diphenyltetrazolium bromide (MTT) assays were carried out as described previously.[48] Briefly, LDH activity was determined from 50 μL samples of cell culture medium, to which 50 μL of substrate solution [1.3 mM β-nicotinamide-adenine dinucleotide, 660 μM iodonitrotetrazolium, 54 mM L(+)-lactic acid, and 280 μM phenazine methosulfate in 0.2 M Tris-HCl, pH 8.2, all from Sigma-Aldrich] was added, and the plate was incubated for 30 min at room temperature. The reaction was stopped with acetic acid (final concentration 333 mM), and absorbance was measured at 490 nm. The absorbance values of the samples were normalized to maximal LDH release and spontaneous LDH release determined on the same plate. Mitochondrial metabolic activity was quantified by incubating the cells with 0.5 mg/mL MTT (from Sigma-Aldrich) for 2 h at 37 °C with 5% CO2, whereafter culture medium was removed and formazan crystals were dissolved in DMSO. The absorbance was measured at 550 nm, and absorbance at 650 nm was subtracted as background.

[4] = test system: COS-1 cells; test: LDH assay (necrosis)
Description: as §5, §6, §7

[5] = target: T3, GATA4–NKX2-5 transcriptional synergy (Mus musculus, UniProt P42582+Q08369); test: GATA4–NKX2-5 transcriptional synergy luciferase reporter assay (3xNKE reporter, COS-1 cells); settings: COS-1
T3 construct: expressed in transfected cells; host or cells: COS-1

[6] = 3 µM, luciferase reporter activity relative to control
[7] = 3 µM, luciferase reporter activity, % of control
[8] = 10 µM, luciferase reporter activity, % of control
[9] = compound 3 µM, luciferase reporter activity, spread in separate STDEV column
[10] = compound 10 µM, luciferase reporter activity, spread in separate STDEV column

T3 sequence (Q08369 whole entry): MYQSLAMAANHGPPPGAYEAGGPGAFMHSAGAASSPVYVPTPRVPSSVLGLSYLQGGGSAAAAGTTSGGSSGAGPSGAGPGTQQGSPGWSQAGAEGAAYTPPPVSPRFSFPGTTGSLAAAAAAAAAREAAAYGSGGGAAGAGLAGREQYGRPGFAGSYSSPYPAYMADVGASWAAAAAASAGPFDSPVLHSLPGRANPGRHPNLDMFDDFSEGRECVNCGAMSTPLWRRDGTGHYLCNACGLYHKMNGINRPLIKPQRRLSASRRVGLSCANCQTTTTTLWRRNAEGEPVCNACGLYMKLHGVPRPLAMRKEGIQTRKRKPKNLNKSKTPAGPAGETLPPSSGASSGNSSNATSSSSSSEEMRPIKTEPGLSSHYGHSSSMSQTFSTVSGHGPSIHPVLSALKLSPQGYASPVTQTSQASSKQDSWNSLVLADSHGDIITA
T3 sequence (P42582 whole entry): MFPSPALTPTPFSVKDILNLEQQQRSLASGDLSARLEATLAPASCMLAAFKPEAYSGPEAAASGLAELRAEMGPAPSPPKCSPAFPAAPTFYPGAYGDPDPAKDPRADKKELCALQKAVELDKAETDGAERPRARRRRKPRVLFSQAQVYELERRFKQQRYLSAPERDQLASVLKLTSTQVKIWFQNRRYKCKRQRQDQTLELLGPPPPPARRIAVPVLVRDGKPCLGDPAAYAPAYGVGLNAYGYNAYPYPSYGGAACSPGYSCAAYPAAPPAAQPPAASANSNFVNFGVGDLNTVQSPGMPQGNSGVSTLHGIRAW
T1 sequence (Q08369 whole entry): as the sequence (Q08369 whole entry) above
T2 sequence (P42582 whole entry): as the sequence (P42582 whole entry) above

| Compound | activity at 3 µM [1, 6] | activity at 3 µM [2, 6] | activity at 3 µM [5, 6] | MTT.1µM [3] | MTT.3µM [3] | MTT.10µM [3] | MTT.30µM [3] | LDH.1µM [4] | LDH.3µM [4] | LDH.10µM [4] | LDH.30µM [4] | also measured |
| --- | --- | --- | --- | --- | --- | --- | --- | --- | --- | --- | --- | --- |
| CCN(CC)c1ccc(NC(=O)c2c(C)noc2-c2cc(C)on2)cc1 [Compound 3] | 96.7% | 106% | 75.5% | 105.34 | 105.48 | 100.7 | 92.68 | 0.35 | -0.67 | -1.59 | -1.83 | activity at 10 µM ([1]; 10 µM, luciferase reporter activity relative to control): 102% |
| Cc1onc(-c2ccccc2)c1C(=O)Nc1ccc2oc(-c3ccccc3)cc(=O)c2c1 [Compound 4g] | 40.2% | 85.2% | 62.6% | 109.72 | 101.99 | 88.31 | 82.48 | -0.29 | 0.38 | -0.94 | -0.1 | GATA4 (% of control) Mean ± SD ([1]; 10 μM, COS-1 cells, 24 h): 66 % of control |
| CCN(c1ccc(NC(=O)c2c(-c3ccccc3)noc2C)cc1)C(C)C [Compound 4i, N-[4-[Ethyl(isopropyl)amino]phenyl]-5-methyl-3-phenylisoxazole-4-carboxamide] | 84.1% | 55.3% | 64.9% | 100.09 | 98.4 | 87.88 | 85.16 | 0.82 | 0.18 | -0.77 | -0.17 |  |
| Cc1onc(-c2ccccc2)c1COCc1ccc2ccccc2c1 [SI48] |  |  |  |  |  |  |  |  |  |  |  | activity at 3 µM [1, 7]: 96.5%; activity at 10 µM [1, 8]: 110%; activity at 3 µM [2, 7]: 103%; activity at 10 µM [2, 8]: 95.1%; activity at 3 µM [5, 7]: 104%; activity at 10 µM [5, 8]: 90.6% |
| COc1ccc(-c2cc(NCc3ccc(N(C)C)cc3)n[nH]2)cc1 [SI92] |  |  |  |  |  |  |  |  |  |  |  | activity at 3 µM [1, 9]: 74.4%; activity at 10 µM [1, 10]: 72.4%; activity at 3 µM [2, 9]: 84%; activity at 10 µM [2, 10]: 78.3%; activity at 3 µM [5, 9]: 76.3%; activity at 10 µM [5, 10]: 85.4% |
| CN(C)c1ccc(CNc2cc(-c3ccccc3)nn2-c2ccccc2)cc1 [SI94] |  |  |  |  |  |  |  |  |  |  |  | activity at 3 µM [1, 9]: 96.8%; activity at 10 µM [1, 10]: 85%; activity at 3 µM [2, 9]: 95.3%; activity at 10 µM [2, 10]: 79%; activity at 3 µM [5, 9]: 69%; activity at 10 µM [5, 10]: 72.5% |
| Cc1onc(-c2ccccc2)c1N=Cc1ccc(N(C)C)cc1 [SI108] |  |  |  |  |  |  |  |  |  |  |  | activity at 3 µM [1, 7]: 109%; activity at 10 µM [1, 8]: 97.6%; activity at 3 µM [2, 7]: 99.3%; activity at 10 µM [2, 8]: 103%; activity at 3 µM [5, 7]: 69.3%; activity at 10 µM [5, 8]: 109% |
| COc1cc(C(=O)Nc2cc(-c3ccncc3)n[nH]2)ccc1C [SI123] |  |  |  |  |  |  |  |  |  |  |  | activity at 3 µM ([1]; GATA4 luciferase reporter assay, compound at 3 µM): 105%; activity at 10 µM ([1]; GATA4 luciferase reporter assay, compound at 10 µM): 80.9%; activity at 3 µM ([2]; NKX2-5 luciferase reporter assay, compound at 3 µM): 106%; activity at 10 µM ([2]; NKX2-5 luciferase reporter assay, compound at 10 µM): 90.4%; activity at 3 µM ([5]; GATA4-NKX2-5 transcriptional synergy luciferase reporter assay, compound at 3 µM): 93.2%; activity at 10 µM ([5]; GATA4-NKX2-5 transcriptional synergy luciferase reporter assay, compound at 10 µM): 72.3% |

The next lines start with results.

| activity at 3 µM [1, 6] | activity at 3 µM [2, 6] | activity at 3 µM [5, 6] | Compound | MTT.1µM [3] | MTT.3µM [3] | MTT.10µM [3] | MTT.30µM [3] | LDH.1µM [4] | LDH.3µM [4] | LDH.10µM [4] | LDH.30µM [4] | also measured |
| --- | --- | --- | --- | --- | --- | --- | --- | --- | --- | --- | --- | --- |
| 101% | 104% | 79.7% | CCC(OC)c1ccc(OCc2c(-c3ccccc3)noc2C)cc1 (racemic) [Compound 34e, (rac)-4-[[4-(1-Methoxypropyl)phenoxy]methyl]-5-methyl-3-phenylisoxazole] | 102.33 | 95.44 | 86.07 | 79.5 | 1.31 | -0.22 | -0.78 | 0.55 |  |
| 92.4% | 71.1% |  | CCN(CC)c1ccc(NC(=O)c2snnc2-c2ccccc2)cc1 [Compound 47n] | 104.04 | 91.5 | 90.69 | 79.72 | 1.44 | 1.32 | 0.75 | 1.71 |  |
